Reference: patent US11053230B2, “3-hydroxy-imidazolidin-4-one compounds as inhibitors of indoleamine 2,3-dioxygenase” (Netherlands Translational Research Center B.V., priority 2017, dated 2021)
“And” between values parts separate entries of the source, which are not always exact repeats. Equal values may be shown once.

Target: T1, IDO1 (Homo sapiens, UniProt P14902)
T1 construct: Recombinant full-length IDO1 (Seegers, N., et al.) and all other assay components were diluted in IDO1 reaction buffer; made in house
Experiment: Biochemical IDO1 assay (NFK GreenScreen)
Conditions: for IC50: NFK GreenScreen, 25 nM IDO1, 100 μM L-tryptophan, read-out: IC50, inhibitory potency on IDO1; for relative activity of the separated isomers: stated in the synthesis examples, assay not named
Experimental: Inhibition of IDO1 activity can be measured by determining the enzymatic conversion of L-tryptophan into N-formylkynurenine (NFK) in a reaction mixture containing IDO1 and test compound. The formation of NFK can be detected directly by, for instance, high-performance liquid chromatography (HPLC) methods, or by intrinsic fluorescence.
Compounds were serially diluted in dimethylsulfoxide (DMSO) and finally in IDO1 reaction buffer, consisting of 50 mM NaH2PO4, pH7.0, supplemented with 0.05% Tween-20 (cat. No. P7949; Sigma Aldrich) and 1% glycerol. Recombinant full-length IDO1 (Seegers, N., et al.) and all other assay components were diluted in IDO1 reaction buffer. […] Subsequently, 10 μl of 0.4 mM of the substrate L-tryptophan was added, i.e., the final concentration of L-tryptophan was 100 μM. The DMSO concentration in the assay was 0.3%. […] Incubation was continued for 60 min at room temperature. Then, 10 μl of NFK Green™ (NTRC, Oss, The Netherlands) was added, the plate was sealed, and the reaction was developed for 3 hours at 37° C. To determine the production of N-formyl kynurenine (NFK), the seal was removed and fluorescence was read on an EnVision multimode reader (Perkin Elmer, Waltham, Mass., USA). IC50 were calculated using XLfit™ software (ID Business Solutions, Ltd., Surrey, U.K.).

T1 sequence (P14902 whole entry): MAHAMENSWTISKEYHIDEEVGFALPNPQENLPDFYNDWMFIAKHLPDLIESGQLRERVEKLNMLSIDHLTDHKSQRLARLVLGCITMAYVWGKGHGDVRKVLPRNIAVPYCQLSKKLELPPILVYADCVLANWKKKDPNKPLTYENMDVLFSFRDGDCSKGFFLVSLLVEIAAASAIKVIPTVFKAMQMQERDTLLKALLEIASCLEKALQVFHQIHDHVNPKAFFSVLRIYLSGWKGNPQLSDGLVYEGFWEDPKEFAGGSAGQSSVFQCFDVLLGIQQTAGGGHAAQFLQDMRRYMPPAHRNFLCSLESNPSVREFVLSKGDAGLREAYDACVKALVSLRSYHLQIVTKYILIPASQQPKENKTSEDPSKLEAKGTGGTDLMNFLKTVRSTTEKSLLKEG

| Structure (SMILES) | IC50 | relative activity of the separated isomers |
| --- | --- | --- |
| CSc1ccc(C2N(O)C(=O)CN2C(=O)c2c(F)cccc2F)s1 (stereo not drawn) [Example 14, 1-(2,6-Difluorobenzoyl)-3-hydroxy-2-(5-methylsulfanyl-2-thienyl)imidazolidin-4-one] | ≤ 5000 nM and 1000 to 5000 nM | – |
| O=C1CN(C(=O)c2c(F)ccc(Br)c2F)C(c2csc(Br)c2)N1O (stereo not drawn) [Example 101, 1-(3-Bromo-2,6-difluoro-benzoyl)-2-(5-bromo-3-thienyl)-3-hydroxy-imidazolidin-4-one] | ≤ 1000 nM | – |
| O=C1CN(C(=O)c2c(F)cc(C#CC3CCCCC3)cc2F)C(c2cc(Br)cs2)N1O (stereo not drawn) [Example 78, 2-(4-Bromo-2-thienyl)-1-[4-(2-cyclohexylethynyl)-2,6-difluoro-benzoyl]-3-hydroxy-imidazolidin-4-one] | ≤ 1000 nM | – |
| C#Cc1csc(C2N(O)C(=O)CN2C(=O)c2c(F)cccc2F)c1 (stereo not drawn) [Example 1, 1-(2,6-Difluorobenzoyl)-2-(4-ethynyl-2-thienyl)-3-hydroxy-imidazolidin-4-one] | ≤ 1000 nM | – |
| NS(=O)(=O)NCCCc1cc(F)c(C(=O)N2CC(=O)N(O)C2c2cc(Br)cs2)c(F)c1 (stereo not drawn) [Example 93, 2-(4-Bromo-2-thienyl)-1-[2,6-difluoro-4-[3-(sulfamoylamino)propyl]benzoyl]-3-hydroxy-4-oxo-imidazolidine] | ≤ 1000 nM | – |
| COc1cc(F)c(C(=O)N2CC(=O)N(O)C2c2cc(Br)cs2)c(F)c1 (stereo not drawn) [Example 51, 2-(4-Bromo-2-thienyl)-1-(2,6-difluoro-4-methoxy-benzoyl)-3-hydroxy-imidazolidin-4-one] | ≤ 1000 nM | – |
| C=Cc1cc(F)c(C(=O)N2CC(=O)N(O)C2c2cc(Br)cs2)c(F)c1 (stereo not drawn) [Example 83, 2-(4-Bromo-2-thienyl)-1-(2,6-difluoro-4-vinyl-benzoyl)-3-hydroxy-imidazolidin-4-one] | ≤ 1000 nM | – |
| O=C1CN(C(=O)c2ccccc2Cl)C(c2cc(Br)cs2)N1O (stereo not drawn) [Example 55, 2-(4-Bromo-2-thienyl)-1-(2-chlorobenzoyl)-3-hydroxy-imidazolidin-4-one] | ≤ 1000 nM | – |
| O=C1CN(C(=O)c2c(F)cccc2Cl)C(c2csc(Br)c2)N1O (stereo not drawn) [Example 99, 2-(5-Bromo-3-thienyl)-1-(2-chloro-6-fluoro-benzoyl)-3-hydroxy-imidazolidin-4-one] | ≤ 1000 nM | – |
| NS(=O)(=O)NCC#Cc1cc(F)c(C(=O)N2CC(=O)N(O)C2c2cc(Br)cs2)c(F)c1 (stereo not drawn) [Example 80, 2-(4-Bromo-2-thienyl)-1-[2,6-difluoro-4-[3-(sulfamoylamino)prop-1-ynyl]benzoyl]-3-hydroxy-4-oxo-imidazolidine] | ≤ 1000 nM | – |
| N#Cc1csc(C2N(O)C(=O)CN2C(=O)c2c(F)cccc2F)c1 (stereo not drawn) [Example 30, 5-[1-(2,6-Difluorobenzoyl)-3-hydroxy-4-oxo-imidazolidin-2-yl]thiophene-3-carbonitrile] | ≤ 5000 nM and 1000 to 5000 nM | – |
| O=C1CN(Cc2ccccc2F)C(c2ccc(Br)s2)N1O (stereo not drawn) [Example 41, 2-(5-Bromo-2-thienyl)-1-[(2-fluorophenyl)methyl]-3-hydroxy-imidazolidin-4-one] | ≤ 1000 nM | – |
| O=C1CN(C(=O)c2c(F)cccc2F)C(c2cc([N+](=O)[O-])cs2)N1O (stereo not drawn) [Example 21, 1-(2,6-Difluorobenzoyl)-3-hydroxy-2-(4-nitro-2-thienyl)imidazolidin-4-one] | ≤ 1000 nM | – |
| O=C1CN(C(=O)c2c(F)cc(-c3cccnc3)cc2F)C(c2cc(Br)cs2)N1O (stereo not drawn) [Example 88, 2-(4-Bromo-2-thienyl)-1-[2,6-difluoro-4-(3-pyridyl)benzoyl]-3-hydroxy-imidazolidin-4-one] | ≤ 1000 nM | – |
| C#Cc1csc(C2N(O)C(=O)CN2C(=O)c2ccccc2F)c1 (stereo not drawn) [Example 35, 2-(4-Ethynyl-2-thienyl)-1-(2-fluorobenzoyl)-3-hydroxy-imidazolidin-4-one] | ≤ 5000 nM and 1000 to 5000 nM | – |
| O=C1CN(Cc2c(F)cccc2F)C(c2cc(Br)cs2)N1O (single isomer, unassigned) [Example 45a, 2-(4-Bromo-2-thienyl)-1-[(2,6-difluorophenyl)methyl]-3-hydroxy-imidazolidin-4-one] | ≤ 5000 nM and 1000 to 5000 nM | less active isomer |
| O=C1CN(C(=O)c2c(F)cc(Br)cc2F)C(c2cc(Br)cs2)N1O (stereo not drawn) [Example 52, 1-(4-Bromo-2,6-difluoro-benzoyl)-2-(4-bromo-2-thienyl)-3-hydroxy-imidazolidin-4-one] | ≤ 1000 nM | – |
| CN(C)c1cc(F)c(C(=O)N2CC(=O)N(O)C2c2cc(Br)cs2)c(F)c1 (stereo not drawn) [Example 97, 2-(4-Bromo-2-thienyl)-1-[4-(dimethylamino)-2,6-difluoro-benzoyl]-3-hydroxy-imidazolidin-4-one] | ≤ 5000 nM and 1000 to 5000 nM | – |
| O=C1CN(C(=O)c2c(F)cc(C#CC3CC3)cc2F)C(c2cc(Br)cs2)N1O (single isomer, unassigned) [Example 47a, 2-(4-Bromo-2-thienyl)-1-[4-(2-cyclopropylethynyl)-2,6-difluoro-benzoyl]-3-hydroxy-imidazolidin-4-one] | ≤ 1000 nM | less active isomer |
| CS(=O)(=O)NCC#Cc1cc(F)c(C(=O)N2CC(=O)N(O)C2c2cc(Br)cs2)c(F)c1 (stereo not drawn) [Example 40, N-[3-[4-[2-(4-bromo-2-thienyl)-3-hydroxy-4-oxo-imidazolidine-1-carbonyl]-3,5-difluoro-phenyl]-prop-2-ynyl]methanesulfonamide] | ≤ 1000 nM | – |
| O=C1CN(C(=O)c2c(F)cc(-c3cn[nH]c3)cc2F)C(c2cc(Br)cs2)N1O (stereo not drawn) [Example 96, 2-(4-bromo-2-thienyl)-1-[2,6-difluoro-4-(1H-pyrazol-4-yl)benzoyl]-3-hydroxy-imidazolidin-4-one] | ≤ 1000 nM | – |
| O=C1CN(C(=O)c2c(F)cc(C#CC3CC3)cc2F)C(c2cc(Br)cs2)N1O (single isomer, unassigned) [Example 47b, 2-(4-Bromo-2-thienyl)-1-[4-(2-cyclopropylethynyl)-2,6-difluoro-benzoyl]-3-hydroxy-imidazolidin-4-one] | ≤ 1000 nM | most active isomer |
| Cc1cc(F)c(C(=O)N2CC(=O)N(O)C2c2cc(Br)cs2)c(F)c1 (stereo not drawn) [Example 84, 2-(4-Bromo-2-thienyl)-1-(2,6-difluoro-4-methyl-benzoyl)-3-hydroxy-imidazolidin-4-one] | ≤ 1000 nM | – |

Now from value to compound:

| IC50 | relative activity of the separated isomers | Structure (SMILES) |
| --- | --- | --- |
| – | less active isomer | C[C@@H](c1ccccc1)N1CC(=O)N(O)C1c1cc(I)cs1 (single isomer, unassigned) [Example 119a] |
| ≤ 1000 nM | – | O=C1CN(C(=O)c2c(F)ccc(-c3cccc4ccccc34)c2F)C(c2cc(Br)cs2)N1O (stereo not drawn) [Example 134, 2-(4-Bromo-2-thienyl)-1-[2,6-difluoro-3-(1-naphthyl)benzoyl]-3-hydroxy-imidazolidin-4-one] |
| ≤ 1000 nM | – | Cn1cc(-c2ccc(F)c(C(=O)N3CC(=O)N(O)C3c3csc(Br)c3)c2F)cn1 (stereo not drawn) [Example 124, 2-(5-Bromo-3-thienyl)-1-[2,6-difluoro-3-(1-methylpyrazol-4-yl)benzoyl]-3-hydroxy-imidazolidin-4-one] |
| ≤ 5000 nM and 1000 to 5000 nM | – | NS(=O)(=O)N1CCC(C(=O)N2CC(=O)N(O)C2c2cc(Br)cs2)CC1 (stereo not drawn) [Example 108, 4-[2-(4-Bromo-2-thienyl)-3-hydroxy-4-oxo-imidazolidine-1-carbonyl]piperidine-1-sulfonamide] |
| ≤ 1000 nM | – | O=C1CN(C(=O)c2c(F)cccc2F)C(c2cc(I)c(F)s2)N1O (stereo not drawn) [Example 116, 1-(2,6-Difluorobenzoyl)-2-(5-fluoro-4-iodo-2-thienyl)-3-hydroxy-imidazolidin-4-one] |
| ≤ 1000 nM | most active isomer | C[C@@H](c1ccccc1)N1CC(=O)N(O)C1c1cc(I)cs1 (single isomer, unassigned) [Example 119b] |
| ≤ 1000 nM | – | Cc1ccc(F)c(C(=O)N2CC(=O)N(O)C2c2csc(Br)c2)c1F (stereo not drawn) [Example 102, 2-(5-Bromo-3-thienyl)-1-(2,6-difluoro-3-methyl-benzoyl)-3-hydroxy-imidazolidin-4-one] |
| ≤ 1000 nM | – | Cc1cc(C2N(O)C(=O)CN2C(=O)c2c(F)cccc2F)sc1Cl (stereo not drawn) [Example 112, 2-(5-Chloro-4-methyl-2-thienyl)-1-(2,6-difluorobenzoyl)-3-hydroxy-imidazolidin-4-one] |
| ≤ 1000 nM | – | O=C1CN(C(=O)c2c(F)ccc(-c3ccccc3)c2F)C(c2cc(Br)cs2)N1O (stereo not drawn) [Example 122, 2-(4-Bromo-2-thienyl)-1-(2,6-difluoro-3-phenyl-benzoyl)-3-hydroxy-imidazolidin-4-one] |
| ≤ 1000 nM | – | O=C1CN(C(=O)c2c(F)ccc(-c3ccc(F)cc3)c2F)C(c2cc(Br)cs2)N1O (stereo not drawn) [Example 136, 2-(4-Bromo-2-thienyl)-1-[2,6-difluoro-3-(4-fluorophenyl)benzoyl]-3-hydroxy-imidazolidin-4-one] |
| ≤ 5000 nM and 1000 to 5000 nM | – | O=C1CN(C(=O)c2c(F)ccc(B(O)O)c2F)C(c2cc(Br)cs2)N1O (stereo not drawn) [Example 126, [3-[2-(4-Bromo-2-thienyl)-3-hydroxy-4-oxo-imidazolidine-1-carbonyl]-2,4-difluoro-phenyl]boronic acid] |
| – | less active isomer | C[C@@H](c1ccccc1)N1CC(=O)N(O)C1c1cc(Br)cs1 (single isomer, unassigned) [Example 118a] |
